From patent US11480877B2, “Resist composition, method for forming resist pattern, and polyphenol compound used therein” (Mitsubishi Gas Chemical Company, Inc., priority 2015, dated 2022)

Assay: Safe solvent solubility test of compound
Type: physicochemical
Details: CHN, 23° C., ultrasonic waves 30 minutes, visual observation
Method: The solubilities of the compound in PGME, PGMEA, and CHN were evaluated according to the following criteria utilizing the amount of dissolution in each solvent. The amount of dissolution was measured at 23° C. by precisely weighing the compound into a test tube, adding a subject solvent so as to attain a predetermined concentration, applying ultrasonic waves for 30 minutes in an ultrasonic cleaner, and visually observing the subsequent state of the fluid.
A: 5.0% by mass≤Amount of dissolution
B: 2.0% by mass≤Amount of dissolution<5.0% by mass
C: Amount of dissolution<2.0% by mass • (2) Storage Stability and Thin Film Formability of Resist Composition
In the case of `Oc1ccc2c3c(ccc2c1)Oc1ccc2cc(O)ccc2c1C3c1ccc(-c2ccccc2)cc1` [Production Example 1, reference compound], the “Solubility in CHN (amount of dissolution)” value (“Solubility in CHN” below) is reported as “A (5.0% by mass ≤ Amount of dissolution)”.
In the case of `Oc1ccc2c3c(ccc2c1)Oc1ccc2cc(O)ccc2c1C3c1cccc(I)c1` [Synthesis Example 1], the “Solubility in CHN” value is reported as “A (5.0% by mass ≤ Amount of dissolution)”.
In the case of `Oc1ccc2c3c(ccc2c1)Oc1ccc2cc(O)ccc2c1C3c1ccc(I)cc1` [Synthesis Example 2], the “Solubility in CHN” value is reported as “A (5.0% by mass ≤ Amount of dissolution)”.
In the case of `COc1cc(C2c3c(ccc4cc(O)ccc34)Oc3ccc4cc(O)ccc4c32)cc(I)c1O` [Synthesis Example 3], the “Solubility in CHN” value is reported as “A (5.0% by mass ≤ Amount of dissolution)”.
For `Oc1ccc2ccc3c(c2c1)C(c1cccc(I)c1)c1c(ccc2ccc(O)cc12)O3` [Synthesis Example 4], the “Solubility in CHN” value was “B (2.0% by mass ≤ Amount of dissolution <5.0% by mass)”.
In the case of `Oc1ccc2ccc3c(c2c1)C(c1ccc(I)cc1)c1c(ccc2ccc(O)cc12)O3` [Synthesis Example 5], the “Solubility in CHN” value is reported as “A (5.0% by mass ≤ Amount of dissolution)”.
With `COc1cc(C2c3c(ccc4ccc(O)cc34)Oc3ccc4ccc(O)cc4c32)cc(I)c1O` [Synthesis Example 6] the “Solubility in CHN” value was “A (5.0% by mass ≤ Amount of dissolution)”.

Same assay, conditions: PGME, 23° C., ultrasonic waves 30 minutes, visual observation
In the case of `Oc1ccc2c3c(ccc2c1)Oc1ccc2cc(O)ccc2c1C3c1ccc(-c2ccccc2)cc1` [Production Example 1, reference compound], the “Solubility in PGME (amount of dissolution)” value is reported as “A (5.0% by mass ≤ Amount of dissolution)”.
With `Oc1ccc2c3c(ccc2c1)Oc1ccc2cc(O)ccc2c1C3c1cccc(I)c1` [Synthesis Example 1] the “Solubility in PGME (amount of dissolution)” value was “A (5.0% by mass ≤ Amount of dissolution)”.
For `Oc1ccc2c3c(ccc2c1)Oc1ccc2cc(O)ccc2c1C3c1ccc(I)cc1` [Synthesis Example 2], the “Solubility in PGME (amount of dissolution)” value was “A (5.0% by mass ≤ Amount of dissolution)”.
For `COc1cc(C2c3c(ccc4cc(O)ccc34)Oc3ccc4cc(O)ccc4c32)cc(I)c1O` [Synthesis Example 3], the “Solubility in PGME (amount of dissolution)” value was “A (5.0% by mass ≤ Amount of dissolution)”.
In the case of `Oc1ccc2ccc3c(c2c1)C(c1cccc(I)c1)c1c(ccc2ccc(O)cc12)O3` [Synthesis Example 4], the “Solubility in PGME (amount of dissolution)” value is reported as “A (5.0% by mass ≤ Amount of dissolution)”.
In the case of `Oc1ccc2ccc3c(c2c1)C(c1ccc(I)cc1)c1c(ccc2ccc(O)cc12)O3` [Synthesis Example 5], the “Solubility in PGME (amount of dissolution)” value is reported as “A (5.0% by mass ≤ Amount of dissolution)”.
In the case of `COc1cc(C2c3c(ccc4ccc(O)cc34)Oc3ccc4ccc(O)cc4c32)cc(I)c1O` [Synthesis Example 6], the “Solubility in PGME (amount of dissolution)” value is reported as “A (5.0% by mass ≤ Amount of dissolution)”.

Same assay, conditions: PGMEA, 23° C., ultrasonic waves 30 minutes, visual observation
For `Oc1ccc2c3c(ccc2c1)Oc1ccc2cc(O)ccc2c1C3c1ccc(-c2ccccc2)cc1` [Production Example 1, reference compound], the “Solubility in PGME A (amount of dissolution)” value was “A (5.0% by mass ≤ Amount of dissolution)”.
With `Oc1ccc2c3c(ccc2c1)Oc1ccc2cc(O)ccc2c1C3c1cccc(I)c1` [Synthesis Example 1] the “Solubility in PGME A (amount of dissolution)” value was “A (5.0% by mass ≤ Amount of dissolution)”.
For `Oc1ccc2c3c(ccc2c1)Oc1ccc2cc(O)ccc2c1C3c1ccc(I)cc1` [Synthesis Example 2], the “Solubility in PGME A (amount of dissolution)” value was “A (5.0% by mass ≤ Amount of dissolution)”.
For `COc1cc(C2c3c(ccc4cc(O)ccc34)Oc3ccc4cc(O)ccc4c32)cc(I)c1O` [Synthesis Example 3], the “Solubility in PGME A (amount of dissolution)” value was “A (5.0% by mass ≤ Amount of dissolution)”.
With `Oc1ccc2ccc3c(c2c1)C(c1cccc(I)c1)c1c(ccc2ccc(O)cc12)O3` [Synthesis Example 4] the “Solubility in PGME A (amount of dissolution)” value was “A (5.0% by mass ≤ Amount of dissolution)”.
For `Oc1ccc2ccc3c(c2c1)C(c1ccc(I)cc1)c1c(ccc2ccc(O)cc12)O3` [Synthesis Example 5], the “Solubility in PGME A (amount of dissolution)” value was “C (Amount of dissolution <2.0% by mass)”.
In the case of `COc1cc(C2c3c(ccc4ccc(O)cc34)Oc3ccc4ccc(O)cc4c32)cc(I)c1O` [Synthesis Example 6], the “Solubility in PGME A (amount of dissolution)” value is reported as “A (5.0% by mass ≤ Amount of dissolution)”.

Same assay, conditions: safe solvents PGME, PGMEA, CHN
For `Oc1ccc2c3c(ccc2c1)Oc1ccc2cc(O)ccc2c1C3c1cccc(I)c1` [Synthesis Example 1], the “Solubility in safe solvents (in words)” value was “high solubility”.
With `Oc1ccc2c3c(ccc2c1)Oc1ccc2cc(O)ccc2c1C3c1ccc(I)cc1` [Synthesis Example 2] the “Solubility in safe solvents (in words)” value was “high solubility”.
For `COc1cc(C2c3c(ccc4cc(O)ccc34)Oc3ccc4cc(O)ccc4c32)cc(I)c1O` [Synthesis Example 3], the “Solubility in safe solvents (in words)” value was “high solubility”.
With `Oc1ccc2ccc3c(c2c1)C(c1cccc(I)c1)c1c(ccc2ccc(O)cc12)O3` [Synthesis Example 4] the “Solubility in safe solvents (in words)” value was “high solubility”.
With `Oc1ccc2ccc3c(c2c1)C(c1ccc(I)cc1)c1c(ccc2ccc(O)cc12)O3` [Synthesis Example 5] the “Solubility in safe solvents (in words)” value was “high solubility”.
For `COc1cc(C2c3c(ccc4ccc(O)cc34)Oc3ccc4ccc(O)cc4c32)cc(I)c1O` [Synthesis Example 6], the “Solubility in safe solvents (in words)” value was “high solubility”.
